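Exposure lasted 48 hours, with cells grown in 96-well plates and compounds tested at five concentrations. TGI marks complete inhibition of growth.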
Legend:
Assay in all cases: NCI tumour cell line growth inhibition, 48 h
OVCAR-8 ovarian = tested on: OVCAR-8 ovarian
HCT-116 colon = tested on: HCT-116 colon
M14 melanoma = tested on: M14 melanoma
786-0 renal = tested on: 786-0 renal
TK-10 renal = tested on: TK-10 renal
HCT-15 colon = tested on: HCT-15 colon
NCI-H226 lung = tested on: NCI-H226 lung
SK-OV-3 ovarian = tested on: SK-OV-3 ovarian
MCF7 breast = tested on: MCF7 breast
SNB-19 CNS = tested on: SNB-19 CNS
MDA-MB-231 breast = tested on: MDA-MB-231 breast
HOP-92 NSCLC = tested on: HOP-92 NSCLC
SK-MEL-5 melanoma = tested on: SK-MEL-5 melanoma
DU-145 prostate = tested on: DU-145 prostate
K-562 leukemia = tested on: K-562 leukemia
SK-MEL-28 melanoma = tested on: SK-MEL-28 melanoma
U251 CNS = tested on: U251 CNS
SF-539 CNS = tested on: SF-539 CNS
BT-549 breast = tested on: BT-549 breast
SN12C renal = tested on: SN12C renal
CCRF-CEM leukemia = tested on: CCRF-CEM leukemia
NCI-H460 lung = tested on: NCI-H460 lung
KM12 colon = tested on: KM12 colon
UACC-62 melanoma = tested on: UACC-62 melanoma
HCC-2998 colon = tested on: HCC-2998 colon
OVCAR-4 ovarian = tested on: OVCAR-4 ovarian
MDA-MB-435 = tested on: MDA-MB-435
COLO 205 colon = tested on: COLO 205 colon
NCI-H522 lung = tested on: NCI-H522 lung
SNB-75 CNS = tested on: SNB-75 CNS
IGROV1 ovarian = tested on: IGROV1 ovarian
HS 578T breast = tested on: HS 578T breast
EKVX NSCLC = tested on: EKVX NSCLC
SF-295 CNS = tested on: SF-295 CNS
LOX IMVI melanoma = tested on: LOX IMVI melanoma
CAKI-1 renal = tested on: CAKI-1 renal
NCI/ADR-RES ovarian = tested on: NCI/ADR-RES ovarian
SK-MEL-2 melanoma = tested on: SK-MEL-2 melanoma
SW-620 colon = tested on: SW-620 colon
MALME-3M melanoma = tested on: MALME-3M melanoma
UACC-257 melanoma = tested on: UACC-257 melanoma
NCI-H23 lung = tested on: NCI-H23 lung
HT29 colon = tested on: HT29 colon
PC-3 prostate = tested on: PC-3 prostate
A549 NSCLC = tested on: A549 NSCLC
A498 renal = tested on: A498 renal
UO-31 renal = tested on: UO-31 renal
SF-268 CNS = tested on: SF-268 CNS
MDA-N = tested on: MDA-N
ACHN renal = tested on: ACHN renal
OVCAR-5 ovarian = tested on: OVCAR-5 ovarian
HL-60(TB) leukemia = tested on: HL-60(TB) leukemia
T-47D breast = tested on: T-47D breast
SR leukemia = tested on: SR leukemia

Measured: TGI

CCN1CC2(COC)C(O)CC(OC)C34C5CC6(O)C(OC)C=C(C5C6OC(=O)c5ccc(OC)c(OC)c5)C(C(OC)C23)C14 (centres undefined)
> 7.5 µM: all assays above
